Columns and labels:
Cathepsin G = molecular target: T1, Cathepsin G (Homo sapiens, UniProt P08311); type: tissue-based; conditions: neutrophil;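 further: inhibition of Cathepsin G enzyme activity, tested on an AMC-conjugated peptide substrate; in other assays of this panel Not Active means under 50% inhibition at 10 µM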
T1 sequence (P08311 whole entry): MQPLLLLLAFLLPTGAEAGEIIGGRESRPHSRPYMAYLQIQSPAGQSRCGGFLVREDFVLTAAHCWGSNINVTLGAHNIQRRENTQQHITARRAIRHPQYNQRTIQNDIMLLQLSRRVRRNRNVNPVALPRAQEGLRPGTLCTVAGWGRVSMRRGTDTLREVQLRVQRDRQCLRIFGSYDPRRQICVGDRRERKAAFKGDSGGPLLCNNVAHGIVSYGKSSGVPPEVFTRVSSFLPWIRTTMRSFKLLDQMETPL

[1] = molecular target: 5-hydroxytryptamine receptor 1B (Rattus norvegicus, UniProt P28564); type: cell membranes, Wistar, Cerebral cortex, Membrane; further: in other assays of this panel Not Active means under 50% inhibition at 10 µM
[2] = molecular target: T2, C-X-C chemokine receptor type 1 (Homo sapiens, UniProt P25024); further: in other assays of this panel Not Active means under 50% inhibition at 10 µM
T2 sequence (P25024 whole entry): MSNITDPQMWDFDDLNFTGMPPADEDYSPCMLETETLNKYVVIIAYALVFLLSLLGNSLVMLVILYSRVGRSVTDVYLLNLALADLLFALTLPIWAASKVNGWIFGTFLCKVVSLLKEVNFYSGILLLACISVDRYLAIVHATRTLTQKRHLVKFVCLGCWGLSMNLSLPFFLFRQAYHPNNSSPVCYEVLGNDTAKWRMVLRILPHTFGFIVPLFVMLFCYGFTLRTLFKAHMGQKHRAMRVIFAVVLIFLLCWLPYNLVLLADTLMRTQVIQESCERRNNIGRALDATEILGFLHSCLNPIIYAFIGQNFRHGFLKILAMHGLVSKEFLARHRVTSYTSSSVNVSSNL

[3] = DRUGMATRIX: Glutamate, NMDA, Phencyclidine radioligand binding (ligand: [3H] TCP); type: cell membranes, Rattus norvegicus, Wistar, Cerebral cortex, Membrane; conditions: Not Active = under 50% inhibition at 10 µM
Caspase-1 = molecular target: T3, Caspase-1 (Homo sapiens, UniProt P29466); set-up: species or system Escherichia coli;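 further: Caspase-1 enzyme inhibition assay with a peptide substrate; in other assays of this panel Not Active means under 50% inhibition at 10 µM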
T3 sequence (P29466 whole entry): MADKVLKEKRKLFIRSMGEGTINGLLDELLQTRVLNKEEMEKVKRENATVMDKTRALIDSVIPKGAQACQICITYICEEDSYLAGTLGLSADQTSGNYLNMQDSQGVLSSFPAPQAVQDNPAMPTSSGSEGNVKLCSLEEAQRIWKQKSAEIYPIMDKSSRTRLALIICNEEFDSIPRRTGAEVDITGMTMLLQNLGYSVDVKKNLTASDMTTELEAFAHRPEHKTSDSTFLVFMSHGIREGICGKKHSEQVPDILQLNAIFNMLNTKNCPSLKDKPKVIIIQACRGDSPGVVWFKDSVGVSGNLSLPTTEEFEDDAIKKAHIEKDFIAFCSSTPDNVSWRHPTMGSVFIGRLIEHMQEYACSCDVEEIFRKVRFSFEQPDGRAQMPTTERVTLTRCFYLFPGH

Chain of 5-hydroxytryptamine receptor 1B (P28564 whole entry): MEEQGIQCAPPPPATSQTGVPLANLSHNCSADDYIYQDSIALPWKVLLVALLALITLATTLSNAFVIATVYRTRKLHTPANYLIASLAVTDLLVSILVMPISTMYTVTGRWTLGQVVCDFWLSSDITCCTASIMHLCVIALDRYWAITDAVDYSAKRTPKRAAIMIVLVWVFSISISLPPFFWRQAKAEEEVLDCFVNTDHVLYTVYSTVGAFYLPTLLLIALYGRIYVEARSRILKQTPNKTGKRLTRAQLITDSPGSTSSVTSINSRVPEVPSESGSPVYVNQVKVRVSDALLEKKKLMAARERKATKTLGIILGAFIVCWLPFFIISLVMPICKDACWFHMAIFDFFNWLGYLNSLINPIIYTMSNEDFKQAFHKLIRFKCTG

C[C@H]1C[C@@H]2[C@H]([C@@H](O)C[C@@]3(C)[C@H]2CC[C@]3(O)C(=O)CO)[C@@]2(C)C=CC(=O)C=C12 [METHYLPREDNISOLONE]
Not Active: IC50 (Cathepsin G) | IC50 [1] | IC50 [2] | IC50 [3] | Ki [3] | IC50 (Caspase-1)

Cc1cccc(C)c1OCC(C)N (centres undefined) [MEXILETINE]
Not Active: IC50 (Cathepsin G) | IC50 [1] | IC50 [2] | IC50 [3] | Ki [3] | IC50 (Caspase-1)

CO[C@H]1/C=C/O[C@@]2(C)Oc3c(C)c(O)c4c(O)c(c(/C=N/N5CCN(C6CCCC6)CC5)c(O)c4c3C2=O)NC(=O)/C(C)=C\C=C\[C@H](C)[C@H](O)[C@@H](C)[C@@H](O)[C@@H](C)[C@H](OC(C)=O)[C@@H]1C [RIFAPENTINE]
Not Active: IC50 (Cathepsin G) | IC50 [1] | IC50 [2] | IC50 [3] | Ki [3] | IC50 (Caspase-1)

CC[C@@H](C(=O)[C@@H](C)[C@@H](O)[C@H](C)[C@@H]1O[C@@H]([C@@H](CC)C(=O)O)CC[C@@H]1C)[C@H]1O[C@]2(C=C[C@@H](O)[C@]3(CC[C@@](C)([C@H]4CC[C@](O)(CC)[C@H](C)O4)O3)O2)[C@H](C)C[C@@H]1C [SALINOMYCIN]
Not Active: IC50 (Cathepsin G) | IC50 [1] | IC50 [2] | IC50 [3] | Ki [3] | IC50 (Caspase-1)

O=C(Oc1ccccc1C(=O)O)c1ccccc1O [SALSALATE]
Not Active: IC50 (Cathepsin G) | IC50 [1] | IC50 [2] | IC50 [3] | Ki [3] | IC50 (Caspase-1)

O=C(O)c1cn(-c2ccc(F)cc2)c2cc(N3CCNCC3)c(F)cc2c1=O [SARAFLOXACIN]
Not Active: IC50 (Cathepsin G) | IC50 [1] | IC50 [2] | IC50 [3] | Ki [3] | IC50 (Caspase-1)

CC(C)NCC(O)c1ccc(NS(C)(=O)=O)cc1 (centres undefined) [SOTALOL]
Not Active: IC50 (Cathepsin G) | IC50 [1] | IC50 [2] | IC50 [3] | Ki [3] | IC50 (Caspase-1)

O.O.O.O.O.O.[Cl-].[Cl-].[Sr+2] [STRONTIUM CHLORIDE HEXAHYDRATE]
Not Active: IC50 (Cathepsin G) | IC50 [1] | IC50 [2] | IC50 [3] | Ki [3] | IC50 (Caspase-1)

O=C1C(CC[S+]([O-])c2ccccc2)C(=O)N(c2ccccc2)N1c1ccccc1 (centres undefined) [SULFINPYRAZONE]
Not Active: IC50 (Cathepsin G) | IC50 [1] | IC50 [2] | IC50 [3] | Ki [3] | IC50 (Caspase-1)

COc1cc2nc(N3CCN(C(=O)C4CCCO4)CC3)nc(N)c2cc1OC (centres undefined) [TERAZOSIN]
Not Active: IC50 (Cathepsin G) | IC50 [1] | IC50 [2] | IC50 [3] | Ki [3] | IC50 (Caspase-1)

CCCCNc1ccc(C(=O)OCCN(C)C)cc1 [TETRACAINE]
Not Active: IC50 (Cathepsin G) | IC50 [1] | IC50 [2] | IC50 [3] | Ki [3] | IC50 (Caspase-1)

Cn1c(=O)c2nc[nH]c2n(C)c1=O.O [THEOPHYLLINE]
Not Active: IC50 (Cathepsin G) | IC50 [1] | IC50 [2] | IC50 [3] | Ki [3] | IC50 (Caspase-1)

CS(=O)(=O)c1ccc([C@@H](O)[C@@H](CO)NC(=O)C(Cl)Cl)cc1 [THIAMPHENICOL]
Not Active: IC50 (Cathepsin G) | IC50 [1] | IC50 [2] | IC50 [3] | Ki [3] | IC50 (Caspase-1)

CCN(CC)CCNC(=O)c1cc(S(C)(=O)=O)ccc1OC [TIAPRIDE]
Not Active: IC50 (Cathepsin G) | IC50 [1] | IC50 [2] | IC50 [3] | Ki [3] | IC50 (Caspase-1)
